Measurements published in patent US5434155A, “Quinoline derivative fumarates” (priority 1992, dated 1995).
Values after ≈ are worked out from the molar mass of the structure shown. Read-outs that look alike come from different tables or passages of the source.

What was measured:
physchem = type: physicochemical; settings: water
Description: Solubility in water was measured according to the Pharmacopoeia Japan.

[1] = Oral absorbability in dogs (drug concentration in plasma); type: in vivo, Male beagles (dog); settings: dog
Description: Male beagles for experimental use were fasted one night before the administration of the test drugs. The drugs were suspended in a 0.1% TWEEN 80--0.1M NaCl--50 mM phosphate buffer solution for administration. All the drugs were forcefully administered in an amount of 50 mg/kg using an oral probe for dogs. Three animals were used for each test group. Blood samples were taken 9 times; 0.25, 0.5, 1, 1.5, 2, 4, 6, 9 and 24 hours after the administration. Blood samples of 5 ml were taken at each sampling time using a heparin-treated disposable injection syringe. Each blood was centrifuged at 3000 rpm for 15 minutes to obtain plasma. Drug concentrations in plasma were measured using HPLC and then calculated from a calibration curve for a standard sample.

[2] = Oral absorbability test in mice (drug concentration in plasma); set-up: species or system 7-Week-old female CDF1 mice; settings: mouse, in vivo
Description: 7-Week-old female CDF1 mice were fasted one night before the administration of the test drugs. The drugs were suspended in an aqueous 0.1% TWEEN 80 solution for administration and were forcefully administered in an amount of 100 mg/kg (for the compound No. 2 of Example 1-(c)) and 109 mg/kg (for the compound No. 4 of Comparative Example 1) so as to get the equivalent molarity using a probe for oral administration. Three animals were used for each test group. Blood samples were taken 4 times; 0.5, 1.0, 2.0 and 4.0 hours after the administration. Blood samples were taken by cardiocentesis under anesthesia with chloroform using a heparin-treated disposable injection syringe, Each blood was centrifuged at 4° C. at 6000 rpm for 10 minutes to obtain plasma. Drug concentrations in plasma were measured using HPLC and then calculated from a calibration curve for a standard sample, Results are shown in the following Tables.

[3] = tested on: Vincristine-resistant mouse leukemia cells, P388/VCR; assay: Carcinostatic-effect-stimulating activity (IC50 of vincristine on vincristine-resistant cells); type: cell-based; settings: 72 h, read-out: IC50 of vincristine
Description: Carcinostatic-effect-stimulating activity
Vincristine-resistant mouse leukemia cells, P388/VCR, were suspended at a concentration of 2×10^4 cells/ml in an RPMI-1640 medium solution containing […]. 2 ml of the cancer cell suspension per tube (12×75 mm) were inoculated and incubated at 37° C. in a 5% CO2 atmosphere. After 6 hours, vincristine and the compound No. 2 of Example 1-(c) at a concentration of 0.3, 1 or 3 microgram/ml and the incubation was continued at 37° C. under a 5% CO2 atmosphere for 72 hours. The cell culture was added to 9.5 ml of ISOTON II, the number of cells was counted using a call counter and then 50% growth inhibiting concentrations of vincristine IC50 (ng/ml) were calculated.

Work on O=C(C(c1ccccc1)c1ccccc1)N1CCN(CC(O)COc2cccc3ncccc23)CC1 (stereo not drawn) [compound No. 1, 5-[3-{4-(2,2diphenylacetyl)piperazin-1-yl}-2-hydroxypropoxy]quinoline] yielded a solubility (physchem) of under 1000 µg/mL, a concentration at 0.25 h ([1]; in vivo, po, 50 mg/kg) of 2460 ng/mL and a concentration at 0.5 h ([1]; in vivo, po, 50 mg/kg) of 3370 ng/mL. For the same molecule, the concentration at 1 h ([1]; in vivo, po, 50 mg/kg) was 4530 ng/mL, the concentration at 1.5 h ([1]; in vivo, po, 50 mg/kg) was 4350 ng/mL and the concentration at 2 h ([1]; in vivo, po, 50 mg/kg) was 4180 ng/mL. For the same molecule, the concentration at 4 h ([1]; in vivo, po, 50 mg/kg) was 2430 ng/mL, the concentration at 6 h ([1]; in vivo, po, 50 mg/kg) was 1620 ng/mL and the concentration at 9 h ([1]; in vivo, po, 50 mg/kg) was 440 ng/mL.
Molecule O=C(C(c1ccccc1)c1ccccc1)N1CCN(CC(O)COc2cccc3ncccc23)CC1.O=C(O)/C=C/C(=O)O (stereo not drawn) [compound No. 2, 5-[3-{4-(2,2-diphenylacetyl)piperazin-1-yl}-2-hydroxypropoxy]quinoline fumarate] has a solubility (physchem) of 1400 µg/mL, a concentration at 0.5 h ([1]; plasma, male beagles, oral 50 mg/kg, 0.5 hr, read-out: Concentration in plasma, Average) of 14700 ng/mL and a concentration at 1 h ([1]; plasma, male beagles, oral 50 mg/kg, 1 hr, read-out: Concentration in plasma, Average) of 13200 ng/mL. It also gave a concentration at 1.5 h ([1]; plasma, male beagles, oral 50 mg/kg, 1.5 hr, read-out: Concentration in plasma, Average) of 12700 ng/mL, a concentration at 2 h ([1]; plasma, male beagles, oral 50 mg/kg, 2 hr, read-out: Concentration in plasma, Average) of 10500 ng/mL and a concentration at 4 h ([1]; plasma, male beagles, oral 50 mg/kg, 4 hr, read-out: Concentration in plasma, Average) of 6760 ng/mL. The concentration at 6 h ([1]; plasma, male beagles, oral 50 mg/kg, 6 hr, read-out: Concentration in plasma, Average) was 3700 ng/mL, the concentration at 9 h ([1]; plasma, male beagles, oral 50 mg/kg, 9 hr, read-out: Concentration in plasma, Average) was 1210 ng/mL and the concentration at 24 h ([1]; plasma, male beagles, oral 50 mg/kg, 24 hr) was 30 ng/mL. The concentration at 0.5 h ([2]; po, 100 mg/kg) was 18000 ng/mL, the concentration at 1 h ([2]; po, 100 mg/kg) was 21800 ng/mL and the concentration at 2 h ([2]; po, 100 mg/kg) was 16000 ng/mL. For the same molecule, the concentration at 4 h ([2]; po, 100 mg/kg) was 13700 ng/mL, the IC50 ([3]; vincristine with compound at 0.3 microgram/ml) was 0.0569 µg/mL and the IC50 ([3]; vincristine with compound at 1 microgram/ml) was 0.022 µg/mL. For the same molecule, the IC50 ([3]; vincristine with compound at 3 microgram/ml) was 0.00412 µg/mL.
O=C(C(c1ccccc1)c1ccccc1)N1CCN(CC(O)COc2cccc3ncccc23)CC1.O=C(O)CC(O)C(=O)O (stereo not drawn) [compound No. 4, 5-[3-{4-(2,2-diphenylacetyl)piperazin-1-yl)-2-hydroxypropoxy]quinoline malate] gave a concentration at 0.5 h ([2]; female CDF1 mice, oral 109 mg/kg (equivalent molarity), 0.5 hr, read-out: Concentration in plasma, Average of 3 mice) of 14300 ng/mL, a concentration at 1 h ([2]; female CDF1 mice, oral 109 mg/kg (equivalent molarity), 1.0 hr, read-out: Concentration in plasma, Average of 3 mice) of 11400 ng/mL and a concentration at 2 h ([2]; female CDF1 mice, oral 109 mg/kg (equivalent molarity), 2.0 hr, read-out: Concentration in plasma, Average of 3 mice) of 11900 ng/mL. For the same molecule, the concentration at 4 h ([2]; female CDF1 mice, oral 109 mg/kg (equivalent molarity), 4.0 hr, read-out: Concentration in plasma, Average of 3 mice) was 5990 ng/mL.
CC[C@]1(O)C[C@H]2CN(CCc3c([nH]c4ccccc34)[C@@](C(=O)OC)(c3cc4c(cc3OC)N(C=O)[C@H]3[C@@](O)(C(=O)OC)[C@H](OC(C)=O)[C@]5(CC)C=CCN6CC[C@]43[C@@H]65)C2)C1 [vincristine, reference compound] showed an IC50 [3] of 0.142 µg/mL (≈ 0.172 µM).
